Laboratory results: PubChem BioAssay AID248 (DTP/NCI, 2004)
Several values for one entry are separate records, joined by “and”; a condition that tells them apart may be missing. Equal values may be shown once. Toxic doses and inconclusive results are not listed. Cut-off read from the data, not from the text of the source: active = T/C of 150% or more; inactive = T/C below 125%.

System: L1210 leukemia ip in BDF1 mice, survival T/C
Experiment: NCI In Vivo Anticancer Drug Screen. Data for tumor model L1210 Leukemia (intraperitoneal) in B6D2F1 (BDF1) mice
Conditions: endpoint: mean survival time, higher = longer survival
Outline: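 In this screen, tumor-bearing mice given compound are compared to those given vehicle, and their survival values are reported as a treated-to-control quotient.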

[1] = dose: 100.0 mg/kg/injection, schedule: Q01DX001 (ip), vehicle: carboxymethylcellulose (CMC)
[2] = dose: 200.0 mg/kg/injection, schedule: Q01DX001 (ip), vehicle: carboxymethylcellulose (CMC)
[3] = dose: 100.0 mg/kg/injection, schedule: Q01DX009 (ip), vehicle: saline with Tween-80
[4] = dose: 100.0 mg/kg/injection, schedule: Q04DX002 (ip), vehicle: saline with Tween-80
[5] = dose: 200.0 mg/kg/injection, schedule: Q01DX009 (ip), vehicle: saline with Tween-80
[6] = dose: 200.0 mg/kg/injection, schedule: Q04DX002 (ip), vehicle: saline with Tween-80
[7] = dose: 400.0 mg/kg/injection, schedule: Q04DX002 (ip), vehicle: saline with Tween-80
[8] = dose: 100.0 mg/kg/injection, schedule: Q01DX001 (ip), vehicle: saline
[9] = dose: 200.0 mg/kg/injection, schedule: Q01DX001 (ip), vehicle: saline
[10] = dose: 400.0 mg/kg/injection, schedule: Q01DX001 (ip), vehicle: saline
[11] = dose: 50.0 mg/kg/injection, schedule: Q01DX009 (ip), vehicle: Klucel (hydroxypropylcellulose) (HPC)
[12] = dose: 100.0 mg/kg/injection, schedule: Q01DX009 (ip), vehicle: Klucel (hydroxypropylcellulose) (HPC)
[13] = dose: 400.0 mg/kg/injection, schedule: Q01DX009 (ip), vehicle: Klucel (hydroxypropylcellulose) (HPC)
[14] = dose: 200.0 mg/kg/injection, schedule: Q04DX002 (ip), vehicle: Klucel (hydroxypropylcellulose) (HPC)
[15] = dose: 100.0 mg/kg/injection, schedule: Q04DX003 (ip), vehicle: Klucel (hydroxypropylcellulose) (HPC)
[16] = dose: 200.0 mg/kg/injection, schedule: Q01DX009 (ip), vehicle: Klucel (hydroxypropylcellulose) (HPC)
[17] = dose: 200.0 mg/kg/injection, schedule: Q04DX003 (ip), vehicle: Klucel (hydroxypropylcellulose) (HPC)
[18] = dose: 400.0 mg/kg/injection, schedule: Q04DX003 (ip), vehicle: Klucel (hydroxypropylcellulose) (HPC)
[19] = dose: 50.0 mg/kg/injection, schedule: Q01DX009 (ip), vehicle: saline
[20] = dose: 100.0 mg/kg/injection, schedule: Q01DX009 (ip), vehicle: saline
[21] = dose: 100.0 mg/kg/injection, schedule: Q04DX003 (ip), vehicle: saline
[22] = dose: 200.0 mg/kg/injection, schedule: Q01DX009 (ip), vehicle: saline
[23] = dose: 200.0 mg/kg/injection, schedule: Q04DX003 (ip), vehicle: saline

Measured: T/C

O=C1CC(=O)N(Cc2ccccc2)C(=O)N1
inactive: [1] 86 % of control | [2] 95 % of control

CCc1ccccc1NC(=O)Oc1ccc(SC)cc1
inactive: dose: 100.0 mg/kg/injection, schedule: Q01DX001 (ip), vehicle: saline with Tween-80 102 % of control | [3] 97 % of control and 99 % of control | [4] 93 % of control and 94 % of control | dose: 200.0 mg/kg/injection, schedule: Q01DX001 (ip), vehicle: saline with Tween-80 98 % of control | [5] 97 % of control and 89 % of control | [6] 96 % of control and 97 % of control | dose: 400.0 mg/kg/injection, schedule: Q01DX001 (ip), vehicle: saline with Tween-80 93 % of control | [7] 96 % of control and 107 % of control | dose: 400.0 mg/kg/injection, schedule: Q04DX003 (ip), vehicle: saline with Tween-80 90 % of control

N#Cc1cn(C2OC(CO)C(O)C2O)c2ncnc(Cl)c12 (stereo unspecified)
inactive: [8] 103 % of control | [9] 104 % of control | [10] 103 % of control

C=CC[N+](CC=C)(CC=C)C/C=C/C[N+](CC=C)(CC=C)CC=C
inactive: dose: 6.25 mg/kg/injection, schedule: Q01DX009 (ip), vehicle: water 95 % of control | dose: 12.5 mg/kg/injection, schedule: Q01DX009 (ip), vehicle: water 94 % of control and 91 % of control | dose: 25.0 mg/kg/injection, schedule: Q01DX009 (ip), vehicle: water 93 % of control and 101 % of control | dose: 50.0 mg/kg/injection, schedule: Q01DX009 (ip), vehicle: water 104 % of control

Cc1cc(OC(=O)Nc2ccccc2C(F)(F)F)cc(C)c1Cl
inactive: [3] 109 % of control | [4] 91 % of control | [5] 102 % of control | [6] 95 % of control | [7] 98 % of control

O=C(CNC(=O)NCc1ccco1)N/N=C/c1ccc(Cl)c(Cl)c1
inactive: [11] 89 % of control | [12] 86 % of control and 88 % of control | [13] 90 % of control

Oc1ccc(Br)cc1/C=N/c1nc(-c2ccccc2)cs1.Oc1ccc(Br)cc1/C=N/c1nc(-c2ccccc2)cs1.[Zn]
inactive: [8] 86 % of control

COc1ccc(OC)c(-n2cccc2)c1
inactive: [4] 87 % of control | [6] 103 % of control | [7] 94 % of control

Cc1nc(N)[nH]c(=O)c1CCCNC(=O)c1cccc(CBr)c1
inactive: dose: 50.0 mg/kg/injection, schedule: Q01DX001 (ip), vehicle: Klucel (hydroxypropylcellulose) (HPC) 101 % of control | dose: 100.0 mg/kg/injection, schedule: Q01DX001 (ip), vehicle: Klucel (hydroxypropylcellulose) (HPC) 100 % of control | [14] 102 % of control

CCCCCCCC(=O)CCCC
inactive: [12] 101 % of control | [15] 103 % of control | [16] 98 % of control | [17] 101 % of control | [13] 102 % of control | [18] 101 % of control

OCC(O)C(O)C(O)C(O)c1nc2ccccc2[nH]1 (stereo unspecified)
inactive: dose: 100.0 mg/kg/injection, schedule: Q04DX002 (ip), vehicle: Klucel (hydroxypropylcellulose) (HPC) 105 % of control | [14] 87 % of control | dose: 400.0 mg/kg/injection, schedule: Q04DX002 (ip), vehicle: Klucel (hydroxypropylcellulose) (HPC) 97 % of control

CC(=O)Nc1nc(Cl)c2ncn(C3OC(COC(=O)c4ccccc4)C(OC(=O)c4ccccc4)C3OC(=O)c3ccccc3)c2n1 (stereo unspecified)
inactive: dose: 75.0 mg/kg/injection, schedule: Q01DX001 (ip), vehicle: saline 95 % of control | [8] 103 % of control | dose: 150.0 mg/kg/injection, schedule: Q01DX001 (ip), vehicle: saline 98 % of control | [9] 101 % of control | dose: 300.0 mg/kg/injection, schedule: Q01DX001 (ip), vehicle: saline 95 % of control | [10] 95 % of control

CCOC(=O)c1ccc(NC(=O)SCCSC(=O)Nc2ccc(C(=O)OCC)cc2)cc1
inactive: [12] 90 % of control | [16] 91 % of control | [13] 91 % of control

CC(=O)NCCCCCC(=O)O
inactive: dose: 25.0 mg/kg/injection, schedule: Q01DX009 (ip), vehicle: saline 97 % of control | [19] 105 % of control | dose: 50.0 mg/kg/injection, schedule: Q04DX003 (ip), vehicle: saline 102 % of control | [12] 98 % of control and 90 % of control | [20] 108 % of control | [15] 101 % of control and 88 % of control | [21] 103 % of control | [16] 97 % of control and 101 % of control | [22] 100 % of control | [17] 101 % of control and 90 % of control | [23] 104 % of control | [13] 101 % of control | dose: 400.0 mg/kg/injection, schedule: Q01DX009 (ip), vehicle: saline 100 % of control | [18] 95 % of control and 101 % of control | dose: 400.0 mg/kg/injection, schedule: Q04DX003 (ip), vehicle: saline 96 % of control | dose: 800.0 mg/kg/injection, schedule: Q04DX003 (ip), vehicle: saline 95 % of control

CCOC(=O)C1c2cc3c(cc2C(c2cc(OC)c(OC)c(OC)c2)C2C(=O)OCC12)OCO3 (stereo unspecified)
inactive: dose: 2.5 mg/kg/injection, schedule: Q01DX009 (ip), vehicle: Klucel (hydroxypropylcellulose) (HPC) 112 % of control | dose: 3.0 mg/kg/injection, schedule: Q01DX009 (ip), vehicle: Klucel (hydroxypropylcellulose) (HPC) 124 % of control | dose: 4.0 mg/kg/injection, schedule: Q01DX009 (ip), vehicle: Klucel (hydroxypropylcellulose) (HPC) 105 % of control | dose: 6.0 mg/kg/injection, schedule: Q01DX009 (ip), vehicle: Klucel (hydroxypropylcellulose) (HPC) 113 % of control | dose: 9.0 mg/kg/injection, schedule: Q01DX009 (ip), vehicle: Klucel (hydroxypropylcellulose) (HPC) 115 % of control | dose: 12.5 mg/kg/injection, schedule: Q01DX009 (ip), vehicle: Klucel (hydroxypropylcellulose) (HPC) 88 % of control

C1=C(N2CCOCC2)CCC(N2CCOCC2)=C1
inactive: [19] 108 % of control | [20] 95 % of control | [21] 98 % of control | [22] 95 % of control | [23] 95 % of control

OC(OCC(COC(O)C(Br)Br)(COC(O)C(Br)Br)COC(O)C(Br)Br)C(Br)Br (stereo unspecified)
inactive: dose: 50.0 mg/kg/injection, schedule: Q01DX001 (ip), vehicle: carboxymethylcellulose (CMC) 101 % of control | [1] 95 % of control | [2] 92 % of control | dose: 400.0 mg/kg/injection, schedule: Q01DX001 (ip), vehicle: carboxymethylcellulose (CMC) 95 % of control

O=C(CCN1CC1)Nc1ccc(Cc2ccc(NC(=O)CCN3CC3)cc2)cc1
inactive: dose: 20.0 mg/kg/injection, schedule: Q04DX003 (ip), vehicle: Klucel (hydroxypropylcellulose) (HPC) 101 % of control | dose: 40.0 mg/kg/injection, schedule: Q04DX003 (ip), vehicle: Klucel (hydroxypropylcellulose) (HPC) 117 % of control | dose: 80.0 mg/kg/injection, schedule: Q04DX003 (ip), vehicle: Klucel (hydroxypropylcellulose) (HPC) 106 % of control

Clc1ccc(N=C/C=C/c2ccccc2)cc1
inactive: dose: 25.0 mg/kg/injection, schedule: Q04DX003 (ip), vehicle: other 95 % of control | dose: 50.0 mg/kg/injection, schedule: Q04DX003 (ip), vehicle: other 108 % of control | dose: 100.0 mg/kg/injection, schedule: Q04DX003 (ip), vehicle: other 100 % of control

CC(=O)Nc1ccc2c(c1)Cc1cc(Br)ccc1-2
inactive: [15] 100 % of control | [17] 100 % of control | [18] 103 % of control

OC[CH2][Hg][Cl]
inactive: dose: 1.56 mg/kg/injection, schedule: Q01DX009 (ip), vehicle: saline 94 % of control | dose: 3.13 mg/kg/injection, schedule: Q01DX009 (ip), vehicle: saline 86 % of control

O=C(Nc1ccc(F)cc1)Nc1cc(C(F)(F)F)ccc1Cl
inactive: [11] 107 % of control | [12] 92 % of control | [16] 92 % of control
